Experiments:
wheat callus = test: Killing curve: callus growth and regeneration under constant selection pressure; assay type: cell-based, Triticum aestivum
Experimental: To define the sensitivity of wheat tissues during transformation when D-Serine and D-Alanine are present as selection agents regeneration experiments with immature embryos were designed. Immature embryos were immersed in PAWinf medium and subjected to all steps of callus induction, callus maintaining and regeneration in transformation protocol above.
Sensitivity of callus tissue under constant selection pressure were evaluated using range of concentrations: 0.5 mM, 1 mM, 3 mM, 5 mM, 10 mM, 25 mM, 50 mM. Experiments were performed in triplicates. Percentage of embryos forming embryos-genic callus was scored on PAW-4 regeneration medium. At the end of shoots elongation regeneration capacity of the calluses was scored as calluses regenerating shoots and number of shoots per callus.
Range of the tested concentrations 0.5-50 mM D-ser and D-ala are evaluated in replicating regeneration experiments. The effect of selective compounds is estimated during callus growth and shoots formation following transformation procedure on medium with D-serine and D-alanine (Table 4).

[1] = system: wheat variety Canon immature embryos / embryogenic callus; test: Agrobacterium-mediated transformation with dao1 constructs and selection of transgenic plants; assay type: cell-based, Triticum aestivum; conditions: pRLM205 (dao1 original), 5 mM selection
Experimental: (§1) Explants were washed with PAW-Inf. medium and immersed in the above-described bacterial suspension for 2 h at 26° C. At the end of infection the explants were placed with scutellum side up on PAW-1 medium. The residual bacterial suspension is removed by pipeting out and air-drying of the infected embryos by opening plates for 15 min on the sterile banch. Plates were sealed with Parafilm and placed in thermostat at 26° C. in the dark for 5-6 days co-cultivation.
(§2) After co-cultivation period the explants were washed with sterile water and 500 mg/L Cefotaxime and filter paper dried before being transferred to PAW-2 callus induction-recovery medium containing 160 mg/l Timentin for 14 days (7 days dark/7 days semi light; 13.2 μmol m^−2s^−1). Explants with embryogenic callus were subculture to PAW-2 callus-proliferation medium containing 160 mg/l Timentin and corresponding selection 5 mM D-serine or 5 mM D-alanine or 3 mg/l bialaphos. In some experiments the selection on D-amino acids was starting on PAW-2 callus induction medium 0, 7, 14 and 21 days after co cultivation. Embryogenic callus was subculture twice on fresh selective medium for callus maintaining and regeneration on PAW-4 medium with corresponding selection. Cultures were maintained at 23° C. on light 60.2 μmol m^−2s^−1. Regenerated shoots were subculture to PAW-5 hormone free medium with corresponding selection (5 mM D-serine or 5 mM D-alanine or 3 mg/l bialaphos) for further growth and rooting. All media used in the transformation experiments were filter sterilized and are listed in above. After analyses transgenic plants were transferred to soil and placed for further growth in greenhouse. 1.4 Molecular and expression studies of the transgenic plants
Freshly isolated immature embryos from Canon were inoculated with Agrobacterium. In all experiments Agrobacterium tumefactions super binary vector system based on LBA4404 (pSB1) was used. The constructs pRLM205 containing the original dao1 gene and pRLM226 carrying modified Daol. Both constructs contain gusINT reporter marker gene (FIGS. 3, I and II). Following co cultivation the explants were transferred on callus induction PAW-2 selection free medium containing 160 mg/l Timentin to inhibit bacterial growth for 14 days. For selection embryogenic callus was transferred to PAW-2 selection medium containing 5 mM D-serine or 5 mM D-alanine respectively. Furthermore calli were sub cultured to fresh corresponding selection PAW-2 medium for maintaining. Embryogenic calli were trans-ferred on PAW-4 selection medium for regeneration 5-6 weeks after transformation. The emerging plantlets were further grown and rooted on PAW-5 hormone free selection medium. Well-developed and rooted on selection putative transgenic regenerants were selected in vitro within. When D-alanine was used as selection compound similar effects in callus growth, shoots regeneration and rooting of transgenic plants or non transgenic escapes selected on D-serine was observed. Both selection agents resulted with 1.1% to 1.2% transformation efficiency and no escape rate (Table 9).

wheat in vitro shoots = test: Killing curve: rooting of in vitro shoots; assay type: in vivo, Triticum aestivum
Source text: […] The effect of selection agents was observed two and tree weeks later. Number of plantlets with growing roots and green leaves were scored.
In vitro regenerated shoots from media lacking the selection compounds were collected and transferred on medium for rooting (½ MS salts hormone free). Roots formation, growth of the shoots and leaves elongation was scored two and four weeks later after sub culturing of these shoots to the medium supplemented with D-amino acids (Table 5).

wheat immature embryos = test: Killing curve: in vitro germination of immature embryos and seedling growth; assay type: in vivo, Triticum aestivum
Experimental: In order to establish effective concentrations of D-serine and D-alanine on inhibiting growth of tissue cultured wheat cells, a bioassay system using immature embryos was applied. Immature embryos 2 mm in length were dissected onto germination medium with the selection agents, and incubated at 27° C. in light. The number of germinated embryos with well-developed shoots and brunched shoots were scored after 14 days.
Immature embryos 2 mm in size were isolated from the sterilized caryopses. The embryos were cultured on PAW-5 hormone free medium for germination in dark. Seedlings growth on D-amino acid selection was observed after 2 weeks. Most of the embryos germinated but the seedlings growth was inhibited when roots emerge and the uptake of the selection compound was direct from the medium. The Lethal Dose (LD 100) for seedlings germination and growth was 1 mM concentration of both D-amino acids tested (Table 6). Seedlings derived from embryos isolated from the immature caryopsis without endosperms were susceptible to the selection in concentration higher than 1 mM (FIG. 8).

[2] = system: Transgenic T1 dao1 seedlings; test: Negative selection of transgenic T1 dao1 seedlings; assay type: in vivo, Triticum aestivum
Experimental: T1 immature embryos were assayed with bioassay for germination of immature embryos on selection. […] Furthermore transgenic T1 seedlings were tested for negative selection using D-isoleucine and D-valine containing medium. Transgenic T1 dao1 seedlings were sensitive to the concentrations range from 10 to 30 mM D-isoleucine and 15-20 mM D-valine (FIG. 11).

[3] = system: wheat variety Canon immature embryos / embryogenic callus; test: Agrobacterium-mediated transformation with dsdA constructs and selection of transgenic plants; assay type: cell-based, Triticum aestivum
Experimental: as §1, §2
Freshly isolated immature embryos from Canon were inoculated with Agrobacterium. In all experiments Agrobacterium tumefacience LBA4404 (pSB1/pRLM167) (SEQ ID NO: 11) was used. The pRLM167 is a super binary vector containing p-ZmUBI+I::c-dsdA::t-OCS and p-ZmUBI+I::c-PAT::t-OCS selectable marker genes in expression cassettes (FIG. 1). Following co cultivation the explants were given a chance to recover for 14 days on callus induction selection free medium containing 160 mg/l Timentin to inhibit bacterial growth. Under these conditions 59% to 76% of the embryogenic callus developed over the all surface of immature embryos. Embryogenic callus was split in two and transferred to two the corresponding selection medium containing 5-mM D-serine or 3 mg/l bialaphos. During subsequent growth of callus, regeneration of plantlets, shoots elongation and roots formation the respective selection pressure was maintained in each of the corresponding medium. After 7 weeks of selection 38%-47% of the embryogenic calli regenerated with plants when selected on bialaphos or on D-serine respectively. Further selection of the regenerants was performed during the elongation and rooting of the regenerants for an additional 3 weeks. Intact in vitro transgenic shoots were selected within 10-12 weeks after co cultivation.
Freshly isolated immature embryos from Canon were inoculated with Agrobacterium. In all experiments Agrobacterium tumefacience super binary vector system based on LBA4404 (pSB1) was used. The constructs pRLM179, pRLM166, pRLM151 (FIG. 2. I, II and III) containing dsdA selectable marker gene alone or with a second gene (ahas or gusINT) were used for transformation. The explants were cultured on selection medium right away after co-cultivation with Agrobacterium or were cultivated on callus induction—recovery medium for 7, 14 and 21 days containing only 160 mg/l Timentin for inhibiting bacterial growth. Furthermore calli were sub cultured to fresh selection PAW-2 medium for proliferation. Embryogenic calli were transferred on PAW-4 selection medium for regeneration 5-6 weeks after transformation. The emerging plantlets were further grown and rooted on PAW-5 hormone free selection medium. […]

[4] = construct pRLM167 (dsdA/pat), selection on 5 mM D-serine or 3 mg/l bialaphos

C[C@@H](N)C(=O)O [D-alanine]
Regeneration capacity of the calli reduced (wheat callus; 5 mM): 70%
Regenerated Embryogenic Lines (%) (wheat callus; Bobwhite, 0.5 mM): 85%
Regenerated Embryogenic Lines (%) (wheat callus; Bobwhite, 3 mM): 52%
Regenerated Embryogenic Lines (%) (wheat callus; Bobwhite, 5 mM): 14%
Regenerated Embryogenic Lines (%) (wheat callus; Bobwhite, 10 mM): 4%
Regenerated Embryogenic Lines (%) (wheat callus; Bobwhite, 15 mM): 0%
Regenerated Embryogenic Lines (%) (wheat callus; Bobwhite, 25 mM): 0%
Regenerated Embryogenic Lines (%) (wheat callus; Bobwhite, 50 mM): 0%
Regenerated Embryogenic Lines (%) (wheat callus; Canon, 0.5 mM): 63%
Regenerated Embryogenic Lines (%) (wheat callus; Canon, 3 mM): 44%
Regenerated Embryogenic Lines (%) (wheat callus; Canon, 5 mM): 19%
Regenerated Embryogenic Lines (%) (wheat callus; Canon, 10 mM): 3%
Regenerated Embryogenic Lines (%) (wheat callus; Canon, 15 mM): 0%
Regenerated Embryogenic Lines (%) (wheat callus; Canon, 25 mM): 0%
Regenerated Embryogenic Lines (%) (wheat callus; Canon, 50 mM): 0%
lethal dose (LD 100) for regeneration response of callus (wheat callus; tested in both varieties): 15 mM
ER (%) Escape Rate [1]: 0%
TE (%) Transformation Efficiency [1]: 1.27%
root formation of non-transgenic shoots (wheat in vitro shoots; 5 mM): not able to form roots
Rooted Shoots (%) (wheat in vitro shoots; Bobwhite, 1 mM): 34%
Rooted Shoots (%) (wheat in vitro shoots; Bobwhite, 3 mM): 13%
Rooted Shoots (%) (wheat in vitro shoots; Bobwhite, 5 mM): 1%
Rooted Shoots (%) (wheat in vitro shoots; Bobwhite, 10 mM): 0%
Rooted Shoots (%) (wheat in vitro shoots; Bobwhite, 15 mM): 0%
Rooted Shoots (%) (wheat in vitro shoots; Bobwhite, 25 mM): 0%
Rooted Shoots (%) (wheat in vitro shoots; Canon, 1 mM): 36%
Rooted Shoots (%) (wheat in vitro shoots; Canon, 3 mM): 11%
Rooted Shoots (%) (wheat in vitro shoots; Canon, 5 mM): 1%
Rooted Shoots (%) (wheat in vitro shoots; Canon, 10 mM): 0%
Rooted Shoots (%) (wheat in vitro shoots; Canon, 15 mM): 0%
Rooted Shoots (%) (wheat in vitro shoots; Canon, 25 mM): 0%
In vitro germination, Immature Embryos (%) (wheat immature embryos; Bobwhite, 0.5 mM): 56%
In vitro germination, Immature Embryos (%) (wheat immature embryos; Bobwhite, 1 mM): 0%
In vitro germination, Immature Embryos (%) (wheat immature embryos; Bobwhite, 5 mM): 0%
In vitro germination, Immature Embryos (%) (wheat immature embryos; Bobwhite, 10 mM): 0%
In vitro germination, Immature Embryos (%) (wheat immature embryos; Canon, 0.5 mM): 40%
In vitro germination, Immature Embryos (%) (wheat immature embryos; Canon, 1 mM): 0%
In vitro germination, Immature Embryos (%) (wheat immature embryos; Canon, 5 mM): 0%
In vitro germination, Immature Embryos (%) (wheat immature embryos; Canon, 10 mM): 0%

CC(C)[C@@H](N)C(=O)O [D-valine]
concentration range to which seedlings were sensitive (negative selection) [2]: 15 to 20 mM

C[C@H](NC(=O)[C@H](C)NC(=O)[C@@H](N)CCP(C)(=O)O)C(=O)O [bialaphos]
ER Escape Rate (% of non-transgenic regenerants out of all selected plants) [3, 4]: 59%
TE Transformation Efficiency (% of transgenic plants out of the explants) [3, 4]: 2.1%
embryogenic calli regenerated with plants ([3]; pRLM167, after 7 weeks of selection, 5 mM D-serine or 3 mg/l bialaphos): 38%

From patent US20090106856A1, “Selection System for Wheat” (BASF PLANT SCIENCE GMBH, priority 2005, published 2009)
